Experimental data reported in patent US12128023B2, “Pharmaceutical composition containing B-lapachone as active ingredient for prevention or treatment of cholestatic liver disease” (CUROME BIOSCIENCES CO., LTD., priority 2020, dated 2024).

Experiments:
macrophage line Raw264.7 = test: Inflammatory cytokine release in LPS and ATP treated macrophage line Raw264.7 (ELISA); type: cell-based; conditions: Raw264.7, LPS 100 ng/ml, ATP 2.5 mM, 0.2, 0.5, 1, 2 μM β-lapachone, 24 hours; supernatant ELISA
Experimental: The macrophage line Raw264.7 (ATCC TIB-71, Manassas, VA, USA) was subcultured in DMEM supplemented with 10% FBS and 1% penicillin/streptomycin.
For inflammation induction, RAW264.7 cells were suspended in DMEM containing 2% FBS, inoculated in a 12-well plate to a cell number of 4×10^5/ml, and incubated in 5% CO2 incubator at 37° C. for 24 hours. With replacement with fresh media, the cells were treated with appropriate concentrations of a corresponding substance, LPS (100 ng/ml), and 0.2, 0.5, 1, and 2 μM β-lapachone, cultured for 24 hours, treated with ATP (2.5 mM), and then cultured for additional 30 minutes, and the supernatant was collected. The release of cytokines (IL-1β and TNF-α) of RaW264.7 macrophages was quantified using each cell-free supernatant-ELISA set (Invitrogen, Billerica, MA, USA) by Invitrogen according to the manufacture's instruction, and is shown in FIG. 14.

[1] = test system: DDC-induced cholestatic liver disease mice; test: Treatment effect in cholestatic liver disease-induced mice (DDC 3 days, then treatment 4 days); type: in vivo, C57BL/6 male mice
Experimental: The treatment effect of β-lapachone in cholestatic liver disease-induced mouse animals were investigated. After 8-week-old C57BL/6 male mice (Samtako, Korea) were divided into each group (=6), each group excluding a control group was fed a diet containing 0.1% DDC for 3 days. Thereafter, the mice were fed a diet with DDC control (vehicle), DDC-+β-lapachone 20 mg/kg, DDC-+β-lapachone 40 mg/kg, DDC-+β-lapachone 80 mg/kg, and positive control DDC+obeticholic acid 30 mg/kg for 4 days (total 7 days). After 7 days of feeding, the mice were sacrificed and then the blood was collected from the heart.

[2] = test system: Poly I:C-induced cholestatic liver disease animal models; test: Treatment effect in Poly I:C-induced primary biliary cirrhosis (PBC) mouse animal models; type: in vivo, C57BL/6 male mice
Experimental: Of cholestatic liver diseases, primary biliary cirrhosis (PBC) may be introduced to a similar state by using a viral RNA mimic and the Toll-like receptor polyinosinic-polycytidylic acid (Poly I:C). After 8-week-old C57BL/6 male mice (Samtako, Korea) were divided into each group (=6), each experimental group excluding a normal group was intraperitoneally administered 5 mg/kg Poly I:C twice a week for 8 weeks. Thereafter, the mice were fed a diet with control (vehicle), β-lapachone 40 mg/kg, β-lapachone 80 mg/kg, and positive control ursodeoxycholic acid 100 mg/kg and obeticholic acid 30 mg/kg for 8 weeks. On the 16th week of treatment, the experiment was ended, and the mice were sacrificed and then the blood was collected from the heart.

[3] = test system: peripheral blood mononuclear cells (PBMCs); test: IL-1β and IL-18 expression in LPS and ATP treated peripheral blood mononuclear cells; type: cell-based, C57BL/6 male mice; conditions: LPS 200 ng/mL and ATP, β-lapachone 0.5, 1, 2 μM, 4 hours
Experimental: Considering that inflammatory cytokines mediate the pathogenic mechanism of cholestatic liver disease, the peripheral blood mononuclear cell model was used by a modified method of Boyum et al. (1968). Peripheral blood mononuclear cells isolated from healthy 8-week-old C57BL/6 male mice (Samtako, Korea) were maintained by primary culture in RPMI-1640 medium containing 10% FBS, 2 mM glutamine, 100 U penicillin, and 0.1 mg/ml streptomycin. Stable peripheral blood mononuclear cells (PBMCs) were treated with LPS at 200 ng/mL and ATP and β-lapachone at 0, 0.5, 1, 2 μM in the medium and, after 4 hours, the expression levels of IL-1β and IL-18 were investigated, and the results are shown in FIG. 15.

[4] = test system: DDC-induced cholestatic liver disease mice; test: Preventive effect in DDC-induced cholestatic liver disease mouse animal models (β-lapachone given 3 days before DDC); type: in vivo, C57BL/6 male mice
Experimental: DDC-induced cholestatic liver disease mouse animal models were prepared according to the method of Elisa Pose et al. by using 8-week-old C57BL/6 male mice (Samtako, Korea). Briefly, cholestatic liver disease was induced by feeding a standard rodent diet supplemented with 0.1% (w/w) DDC for 7 or 14 days. The 12-hour light and dark cycle was maintained and animals were allowed to free access to water. The standard rodent diet included medium wheat, wheat, corn, and corn gluten flour, and soybean oil (14% protein). All animal related procedures were reviewed and approved by the Institutional Animal Care and Use Committee of Korea Research Institute of Bioscience and Biotechnology (KRIBB), KRIBB-AEC-20165). The tissue staining of the cholestatic liver disease animal models was measured through H&E staining (basic tissue staining), Sirius Red staining (collagen staining), and Masson's trichrome staining (collagen, cytoplasm, muscle fibers, etc.), and the tissue staining was measured by a skilled researcher. To investigate the preventive effect of β-Lapachone (BL) on cholestatic liver disease, the mice were fed a diet with 0 (DDC-vehicle), 40 mg/kg (DDC-BL40) and 80 mg/kg (DDC-BL80) 3 days before DDC treatment (total 17 days) and, after 3 days, were fed a diet with DDC (total 14 days). After 14 days of DDC treatment, the mice were sacrificed and the liver was harvested including the portal vein (PV) and bile ducts of the mice, and the surrounding lesions were confirmed by H&E, and are shown in FIG. 1. The liver harvested in Example 2.1 was investigated for tissues or connective tissues around cells through Sirius Red and Masson's trichrome staining, which are shown in FIG. 2A. The expression of the factors in the liver tissue obtained from the cholestatic liver disease mouse animal models of Example 2.1 was performed by a real-time polymerase chain reaction was performed according to the following procedure. Total RNA from liver samples was extracted using Tri-RNA Reagent (Favrogen BIOTECH CORP, Nong-Ke Rd, Taiwan) according to the procedure presented by Favrogen, and was reverse transcribed into cDNA by using PrimeScript™ RT reagent Kit with gDNA Eraser (TAKARA Korea Biomedical Inc, Seoul, 08506, Korea). Quantitative PCR was performed using TB Green™ Premix Ex Tag™ II (Tli RNaseH Plus), ROX plus (TAKARA Korea Biomedical Inc, Seoul, 08506, Korea) and QuantStudio 5 Real-Time PCR Instrument (Thermo Fisher Scientific, Waltham, MA, USA).

[5] = test system: LX-2 hepatic stellate cell line; test: Fibronectin and α-SMA protein expression in TGF-β1-treated LX-2 hepatic stellate cell line (immunoblotting); type: cell-based; conditions: LX-2, 1 ng/ml TGF-β1 + 0.5 or 1 μM β-lapachone, 24 hours
Experimental: Considering that inflammation and fibrosis of bile ducts cause cirrhosis in cholestatic liver disease, experiments were performed on the LX-2 hepatic stellate cell line model by using the method of Takaaki Higashi et al. (2017). The LX-2 cell line was subcultured in DMEM containing 10% FBS, 2 mM glutamine, 100 U penicillin, and 0.1 mg/ml streptomycin. The LX-2 cell line was added into a 6-well plate at a density of 16×10^4 cells/well, and cultured in DMEM containing 1 ng/ml TGF-β1, 1 ng/ml TGF-β1+0.5 μM β-lapachone or 1 ng/ml TGF-β1+1 μM β-lapachone for 24 hours. Thereafter, the protein expression levels of the fibrosis-related genes fibronectin and α-SMA of the obtained cells were measured by protein immunoblotting according to a conventional method known in the art.

[6] = test system: DDC-induced cholestatic liver disease mice; test: DDC-induced cholestatic liver disease mice, DDC and β-lapachone administered together for 7 days; type: in vivo, C57BL/6 male mice
Experimental: To investigate the effect of β-lapachone (BL) on the occurrence of cholestatic liver disease, both […] and β-lapachone were administered to mice to characterize animal models.
After 8-week-old C57BL/6 male mice (Samtako, Korea) were divided into each group (=6), the mice were fed a diet with normal (vehicle), control (DDC), DDC-+β-lapachone 20 mg/kg, DDC+β-lapachone 40 mg/kg, DDC+β-lapachone 80 mg/kg, DDC+β-lapachone 100 mg/kg, and positive control DDC+ursodeoxycholic acid 100 mg/kg, and DDC+obeticholic acid 30 mg/kg (total 7 days). After 7 days of treatment, the mice were sacrificed and then the blood was collected from the heart. Thereafter, the levels of alanine aminotransferase (ALT), aspartate aminotransferase (AST), alkaline phosphatase (ALP), and bilirubin, which are blood indexes, were analyzed, and shown in FIG. 4.
After the cholestatic liver disease mouse animal models in Example 3.1 were sacrificed and the liver tissue was harvested therefrom, the mRNA levels of fibrosis-related genes were measured by a method similar to the method in Example 2.3.
In the cholestatic liver disease, the inflammation in the portal vein and damage to the bile ducts in the liver occur chronically, resulting in cholestasis and liver fibrosis. The mRNA levels of inflammatory cytokine genes in the liver tissue of the cholestatic liver disease mouse animal models obtained by the same method as in Example 3.1 were measured, and shown in FIG. 6.

[7] = test system: DSS-induced inflammatory bowel disease mice; test: DSS-induced inflammatory bowel disease (acute colitis) mouse models; type: in vivo, C57BL/6 female mice; conditions: for mortality (percent of mice that died): 14th day of the experiment, 70% died in DSS-induced IBD mice
Experimental: Dextran sodium sulfate (DSS)-induced acute colitis mouse models were constructed using 8-week-old C57BL/6 female mice (Samtako, Korea).
After 8-week-old C57BL/6 female mice (Samtako, Korea) were divided into each group (=10), each experimental group was fed a standard rodent diet supplemented with 3% (w/w) DSS in drinking water for the first 5 days to induce acute colitis and orally administered control (vehicle), β-lapachone 40 mg/kg, and β-lapachone 80 mg/kg for 14 days.
All animal-related procedures were discussed and approved by the Institutional Animal Care and Use Committee of the Hanyang University. The survival rate over time is shown in FIG. 9, and the change rate in body weight of mice in each experimental group was measured and shown in FIG. 10A. The fecal occult bleeding per rectum, total bleeding loss, and fecal concentration were measured daily.
By the same method as in Example 6.1, experimental groups were divided into a DSS untreated group (Control), a DSS treated group, and a DSS-+β-lapachone 80 mg/kg treated group, respectively, and treated. After the end of the experiment, the mice were sacrificed to remove the colon, and the accurate colon length was measured using a Vernier caliper, and is shown FIGS. 11A and 11B. In addition, the mRNA levels of genes of interleukin-1beta (IL-1β), interleukin-6 (IL-6), interleukin-18 (IL-18), interferon-γ (INF-γ), tumor necrosis factor-α (TNF-α), tumor necrosis factor-β (TNF-β), and monocyte chemoattractant protein-1 (MCP-1), which were inflammatory cytokine factors in the colon tissue, were analyzed by a real-time polymerase chain reaction through a conventional experiment procedure, and are shown in FIG. 12.

[8] = 0.1% DDC 3 days, then DDC + β-lapachone 20, 40, 80 mg/kg in diet 4 days, depending on the concentration
[9] = Poly I:C 5 mg/kg i.p. 8 weeks, then β-lapachone 40, 80 mg/kg in diet 8 weeks
[10] = vs ursodeoxycholic acid 100 mg/kg and obeticholic acid 30 mg/kg
[11] = liver mRNA, DDC-BL40 and DDC-BL80 vs DDC-vehicle
[12] = DDC + β-lapachone 20, 40, 80, 100 mg/kg in diet, depending on the concentration
[13] = liver mRNA, DDC + β-lapachone, depending on the concentration
[14] = DSS + β-lapachone 80 mg/kg vs DSS

## CC1(C)CCC2=C(O1)c1ccccc1C(=O)C2=O [β-lapachone]
Macrophage line Raw264.7
  expression level of IL-1β protein increased by LPS and ATP: reduced depending on the concentration
  expression level of TNF-α protein increased by LPS and ATP: reduced depending on the concentration
[1]; [8]
  ALP in the blood: inhibited
  bilirubin in the blood: inhibited
[1]; vs ursodeoxycholic acid (UDCA) and obeticholic acid (OCA)
  effect on blood indexes (bilirubin, ALP) compared with positive controls: excellent effect compared with ursodeoxycholic acid (UDCA) and obeticholic acid (OCA)
[2]; [9]
  ALP in the blood: inhibited
  ALT in the blood: inhibited
  AST in the blood: inhibited
[2]; [10]
  effect on blood indexes (AST, ALT, ALP) compared with comparative substances: excellent effect compared with the comparative substances ursodeoxycholic acid (UDCA) and obeticholic acid (OCA)
[3]
  expression level of IL-1β increased by LPS and ATP: reduced depending on the concentration
  expression level of IL-18 increased by LPS and ATP: reduced depending on the concentration
[4]; DDC-BL40 and DDC-BL80 (40 and 80 mg/kg in diet, 17 days; DDC 14 days) compared with DDC-vehicle, concentration dependent
  lesions around the portal vein (PV) and bile ducts (H&E): significant lesion reductions
[4]; [11]
  transcriptional level of Col1α1: significantly reduced
  transcriptional level of Col4α1: significantly reduced
  transcriptional level of TGF-β1: significantly reduced
  transcriptional level of fibronectin: significantly reduced
  transcriptional level of α-SMA: significantly reduced
[4]; liver of DDC mice treated with β-lapachone 40 and 80 mg/kg vs DDC-vehicle
  formation of connective tissues (Sirius Red and Masson's trichrome staining): inhibited such fibrosis progression
[5]
  protein expression level of fibronectin increased by TGF-β1: reduced depending on the concentration
  protein expression level of α-SMA increased by TGF-β1: reduced depending on the concentration
[6]; [12]
  ALP in the blood: inhibited
  ALT in the blood: inhibited
  AST in the blood: inhibited
  bilirubin in the blood: inhibited
[6]; liver mRNA, DDC + β-lapachone
  transcriptional level of IL-1β: inhibited
  transcriptional level of TNFα: inhibited
[6]; [13]
  transcriptional level of Col1α1: inhibited
  transcriptional level of Col1α2: inhibited
  transcriptional level of TGF-β1: inhibited
[6]; [10]
  effect on blood indexes (ALT, AST, ALP, bilirubin) compared with positive controls: excellent effects compared with ursodeoxycholic acid (UDCA) and obeticholic acid (OCA)
[7]; [14]
  mRNA level of IL-1β in colon tissue: significantly reduced
  mRNA level of IL-6 in colon tissue: significantly reduced
  mRNA level of IL-18 in colon tissue: significantly reduced
  mRNA level of INF-γ in colon tissue: significantly reduced
  mRNA level of MCP-1 in colon tissue: significantly reduced
  mRNA level of TNF-α in colon tissue: significantly reduced
  mRNA level of TNF-β in colon tissue: significantly reduced
[7]; DSS + β-lapachone 80 mg/kg vs DSS treated group
  colon length: recovered
[7]; sum of scores for body weight reduction, feces condition, blood feces (Table 3), β-lapachone 40 and 80 mg/kg
  colitis score: reduced depending on the treatment concentration
[7]; β-lapachone 40 mg/kg orally
  mortality (percent of mice that died): 50%
[7]; β-lapachone 80 mg/kg orally
  mortality (percent of mice that died): 20%
